# Assay results taken from patent US8318774B2, “Compounds involving mGluR5 receptor regulation and methods of making the compounds” (Gruenenthal GmbH, priority 2006, dated 2012).
# pIC50: −log10 of the molar value.
# Target: T1, mGluR5 receptor (pig) (Sus scrofa, UniProt I3LUI7)
# T1 construct: 450 μg of protein from brain homogenate are incubated; from tissue; host or cells: pig brain halves without medulla, cerebellum and pons (homogenate, differential centrifugation)
# Test: Inhibition of [3H]-MPEP binding in the mGluR5 receptor binding assay (pig brain homogenate)
# Conditions: 5 nM [3H]-MPEP, 60 min, room temperature, read-out: IC50 mGluR5 receptor (pig) [3H]-MPEP bonding
# Procedure: I. Method for Determining the Inhibition of the [^3H]-MPEP Binding in the mGluR5 Receptor Binding Assay
# Pig brain homogenate is produced by the homogenisation (Polytron PT 3000, Kinematica AG, 10,000 rpm for 90 seconds) of pig brain halves without medulla, cerebellum and pons, in a buffer with pH 8.0 (30 mM Hepes, Sigma, order no. H3375+1 “Complete Tablet” to 100 ml, Roche Diagnostics, order no. 1836145) in the ratio 1:20 (brain weight/volume) and differential centrifuging at 900×g and 40,000×g. 450 μg of protein from brain homogenate are incubated in 250 μl incubation preparation in 96-well microtiter plates, for 60 minutes at room temperature in a buffer (as above), along with 5 nM ^3[H]-MPEP (Tocris, order no. […]
# Subsequently, the preparations are filtered on unifilter plates with fibreglass filter mats (Perkin Elmer, order no. 6005177) using a Brandel Cell Harvester (Brandel, TYP Robotic 9600) and subsequently washed with buffer (as above) 3 times with 250 μl per sample in each case. The filter plates are subsequently dried for 60 min at 55° C. Subsequently 30 μl Ultima Gold™ scintillator (Packard Bioscience, order no. 6013159) are added to each well, and after 3 hours the samples are measured with the β-counter (Mikrobeta, Perkin Elmer). The non-specific binding is determined by adding 10 μM MPEP (Tocris, order no. 1212).
# T1 sequence (I3LUI7 19-1212): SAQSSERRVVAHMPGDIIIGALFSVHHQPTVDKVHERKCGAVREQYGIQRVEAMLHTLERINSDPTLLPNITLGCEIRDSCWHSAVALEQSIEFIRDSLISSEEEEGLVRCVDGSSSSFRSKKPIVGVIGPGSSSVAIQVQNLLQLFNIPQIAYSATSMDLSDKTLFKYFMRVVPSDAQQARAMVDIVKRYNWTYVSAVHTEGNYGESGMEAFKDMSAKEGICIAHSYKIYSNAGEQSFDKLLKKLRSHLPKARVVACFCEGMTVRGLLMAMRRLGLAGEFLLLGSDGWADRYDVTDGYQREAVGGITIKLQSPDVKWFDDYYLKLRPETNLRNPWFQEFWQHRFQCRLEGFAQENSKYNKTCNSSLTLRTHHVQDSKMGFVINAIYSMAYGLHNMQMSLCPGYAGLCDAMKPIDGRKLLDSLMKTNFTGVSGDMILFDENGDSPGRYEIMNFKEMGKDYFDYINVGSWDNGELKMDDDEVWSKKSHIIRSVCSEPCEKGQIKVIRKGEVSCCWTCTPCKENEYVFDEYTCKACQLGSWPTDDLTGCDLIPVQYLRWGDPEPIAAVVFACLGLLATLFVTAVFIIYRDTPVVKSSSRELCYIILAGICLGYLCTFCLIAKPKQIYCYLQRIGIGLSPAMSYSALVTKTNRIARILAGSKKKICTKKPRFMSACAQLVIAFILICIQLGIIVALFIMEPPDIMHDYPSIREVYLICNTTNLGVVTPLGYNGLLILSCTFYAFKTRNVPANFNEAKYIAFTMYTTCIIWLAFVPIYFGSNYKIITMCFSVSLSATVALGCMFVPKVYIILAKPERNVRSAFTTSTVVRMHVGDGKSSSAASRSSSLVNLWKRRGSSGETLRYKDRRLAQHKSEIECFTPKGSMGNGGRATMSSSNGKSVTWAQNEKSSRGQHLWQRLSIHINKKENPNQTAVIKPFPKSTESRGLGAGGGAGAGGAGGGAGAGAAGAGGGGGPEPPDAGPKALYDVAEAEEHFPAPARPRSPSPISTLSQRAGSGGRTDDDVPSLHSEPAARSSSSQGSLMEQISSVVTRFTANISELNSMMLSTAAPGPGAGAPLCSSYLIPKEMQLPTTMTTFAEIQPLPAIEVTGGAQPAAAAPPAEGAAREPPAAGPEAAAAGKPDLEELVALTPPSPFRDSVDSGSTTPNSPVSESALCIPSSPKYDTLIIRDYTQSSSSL
row,Structure (SMILES),pIC50
1,CN(CCCN(C)c1nccs1)C(=O)C#Cc1ccccc1 [Example 1],6.00
2,"O=C(C#Cc1ccccc1)N1CC2CN(c3nccs3)CC2C1 (stereo not drawn) [Example 3, 3-(thiazol-2-yl)-7-(3-phenyl)-propiolyl-3,7-diaza-bicyclo[3.3.0]octane]",5.35
3,"CN(c1nccs1)C1CCN(C(=O)C#Cc2ccccc2)CC1 [Example 4, 4-(methyl-thiazol-2-yl-amino)-1-(3-phenyl-propiolyl)piperidine]",5.37
4,"CN(C(=O)C#Cc1ccccc1)C1CCN(c2nccs2)CC1 [Example 6, N-methyl-3-phenyl-N-(1-(thiazol-2-yl)piperidin-4-yl)propiolamide]",6.00

# Second part, the compound after the results:
row,pIC50,Structure (SMILES)
1,5.52,"O=C(C#Cc1ccccc1)N1CCC(Nc2nccs2)CC1 [Example 2, 4-(thiazol-2-yl-amino)-1-(3-phenyl-propiolyl)piperidine]"
2,5.13,"O=C(C#Cc1ccccc1)NC1CCN(c2nccs2)CC1 [Example 5, 3-phenyl-N-(1-(thiazol-2-yl)piperidin-4-yl)propiolamide]"

# Same assay, conditions: 1 μM test compound, 5 nM [3H]-MPEP, 60 min, room temperature, read-out: % inhibition of mGluR5 receptor (pig) [3H]-MPEP bonding at 1 μM
row,Structure (SMILES),inhibition at 1 µM
1,"Cc1csc(N2CCC(NC(=O)C#Cc3ccccc3)CC2)n1 [Example 10, N-(1-(4-methyl-thiazol-2-yl)piperidin-4-yl)-3-phenyl-propiolamide]",36%
2,"COc1cccc(C#CC(=O)NC2CCN(c3nc(C)cs3)CC2)c1 [Example 11, N-(1-(4-methyl-thiazol-2-yl)piperidin-4-yl)-3-(3-methoxyphenyl)-propiolamide]",26%
3,"Cc1csc(N2CCC(NC(=O)C#Cc3ccccc3F)CC2)n1 [Example 16, 3-(2-fluoro-phenyl)-N-(1-(4-methyl-thiazol-2-yl)piperidin-4-yl)-propiolamide]",22%
4,"Cc1csc(N2CCC(NC(=O)C#Cc3ccc(C)c(F)c3)CC2)n1 [Example 20, 3-(3-fluoro-4-methyl-phenyl)-N-(1-(4-methyl-thiazol-2-yl)piperidin-4-yl)-propiolamide]",39%

# Continued, values first:
row,inhibition at 1 µM,Structure (SMILES)
1,32%,"Cc1csc(N2CCC(NC(=O)C#Cc3cccc(C(F)(F)F)c3)CC2)n1 [Example 21, N-(1-(4-methyl-thiazol-2-yl)piperidin-4-yl)-3-(3-trifluoromethyl-phenyl)-propiolamide]"
2,79%,"Cc1cccc(C#CC(=O)NC2CCN(c3nc(C)cs3)CC2)c1 [Example 22, N-(1-(4-methyl-thiazol-2-yl)piperidin-4-yl)-3-(3-tolyl)-propiolamide]"
